Values joined by “and” are separate entries in the source; they are usually repeats but may differ in a detail not shown here. Equal values may be shown once. Read-outs that look alike come from different tables or passages of the source. Where a SMILES comes first, the peptide text is derived from it. The star is where a group is joined. Palmitoyl = CCCCCCCCCCCCCCCC(=O)*
What was measured:
Assay type in all cases: cell-based
[1] = tested on: HIV-1 NL4-3 gp41 I37T pseudovirus; conditions: for Fold change in IC50: I37T relative to WT NL4-3; for IC50: I37T, TZM-bl cells, 48 h, luciferase, mean ± SD, triplicate, repeated three times
Protocol: (§1) Viral RNA was extracted from the supernatant, and, after reverse transcription, the cDNA was amplified using PCR. These amplified DNA were connected to the T-Easy vector and transformed to Trans 2-Blue Chemically Competent Cells. These sequences were determined via sequencing. The expression plasmids, which contained different HIV-1NL4-3 Env mutants, were constructed using DNA assembly (NEBuilder® HiFi DNA Assembly Master Mix). In brief, two primers were used to amplify Env, and the other two primers were used to amplify the vector fragment. The products of PCR were purified with a 20–25 bp overlap in the terminal of Env and the vector fragment Env and the vector fragment were added to the DNA assembly master mix at […] for 15 min and then transformed to Trans 2-Blue Chemically Competent Cells. Additionally, a single-point mutation was generated using double-stranded DNA templates and a selection of mutants with a restriction enzyme (DpnI) as described previously.
(§2) The infectivity of HIV Env mutants and the inhibitory activities of membrane fusion inhibitors on mutants in TZM-bl cells were measured using a single-cycle infection assay as described previously. Briefly, the HIV pseudovirus was packed using an Env-coding plasmid, and pSG3ΔEnv was co-transfected into HEK293T cells. pSG3ΔEnv encodes an Env-defective, luciferase-expressing HIV-1 genome. After the pseudoviruses were harvested and filtrated, the amount of pseudoviruses was fixed via P24 antigen, and their infectivity was determined in TZM-bl cells. In order to measure the inhibitory activities of the inhibitors, inhibitors diluted serially 3-fold were mixed with an equal volume of pseudoviruses, and then 100 µL 1 × 10^5/mL TZM-bl cells were added to the mixture and incubated at 37 °C with 5% CO2 for 48 h. After that, TZM-bl cells were lysed using reporter lysis buffer, and IC50 values were calculated according to luciferase activity measured by luciferase assay reagents and a luminescence counter (Promega, Madison, WI, USA).

[2] = tested on: HIV-1 NL4-3 gp41 L33S pseudovirus; conditions: for Fold change in IC50: L33S relative to WT NL4-3; for IC50: L33S, TZM-bl cells, 48 h, luciferase, mean ± SD, triplicate, repeated three times
Protocol: as §1, §2

[3] = tested on: HIV-1 NL4-3 gp41 L33S/V38A/N42T pseudovirus; conditions: Table 3; for IC50: L33S/V38A/N42T, TZM-bl cells, 48 h, luciferase, means, triplicate, repeated three times
Protocol: (§3) We selected LP-40-induced drug resistance typical point mutations and combination mutation pseudoviruses to evaluate the current representative membrane fusion inhibitors.
as §2

[4] = tested on: HIV-1 NL4-3 gp41 NDQEEDYN/L33S/V38A/N42T pseudovirus; conditions: Table 3; for IC50: NDQEEDYN/L33S/V38A/N42T, TZM-bl cells, 48 h, luciferase, means, triplicate, repeated three times
Protocol: as §3, §2

[5] = tested on: HIV-1 NL4-3 gp41 L33S/I37T pseudovirus; conditions: Table 3; for IC50: L33S/I37T, TZM-bl cells, 48 h, luciferase, means, triplicate, repeated three times
Protocol: as §3, §2

[6] = tested on: HIV-1 NL4-3 gp41 A21T pseudovirus; conditions: Table 2; for IC50: A21T, TZM-bl cells, 48 h, luciferase, mean ± SD, triplicate, repeated three times
Protocol: (§4) The entry abilities of A15V, L57H, R68G, G86D, C87Y, E119G, and N140S were almost completely lost, corresponding to LP40-V6, LP40-V7, T20-V9, LP40-V3, LP40-V5, LP40-V4, and T20-V5, respectively, so it was determined that these mutation sites might be lethal mutations. […] The differences between the wild-type envelope proteins and serial mutant proteins in mediating membrane fusion were compared using a double-separated protein-based fusion experimental system. […] G20V, A21T, E119G, and Y127H had only an approximately 10% fusion capacity, and L33S, N42D, N42T, and N43S had less than 50% fusion capacity, but N140S had approximately 60% fusion capacity (Figure 6B). […] Among them, we selected the fusion ability of the sixth hour to evaluate the fusion activities of the mutant strains (Figure 6B).
as §1, with “previously. The successful mutations were confirmed via sequencing.” for “previously.”
as §2

[7] = tested on: HIV-1 NL4-3 gp41 V38T pseudovirus; conditions: Table 2; for IC50: V38T, TZM-bl cells, 48 h, luciferase, mean ± SD, triplicate, repeated three times
Protocol: as §4
as §1, with “previously. The successful mutations were confirmed via sequencing.” for “previously.”
as §2

[8] = tested on: HIV-1 NL4-3 gp41 A50V pseudovirus; conditions: Table 2; for IC50: A50V, TZM-bl cells, 48 h, luciferase, mean ± SD, triplicate, repeated three times
Protocol: as §4
as §1, with “previously. The successful mutations were confirmed via sequencing.” for “previously.”
as §2

[9] = tested on: HIV-1 NL4-3 gp41 N42D pseudovirus; conditions: Table 2; for IC50: N42D, TZM-bl cells, 48 h, luciferase, mean ± SD, triplicate, repeated three times
Protocol: as §4
as §1, with “previously. The successful mutations were confirmed via sequencing.” for “previously.”
as §2

[10] = tested on: HIV-1 NL4-3 gp41 N43S pseudovirus; conditions: Table 2; for IC50: N43S, TZM-bl cells, 48 h, luciferase, mean ± SD, triplicate, repeated three times
Protocol: as §4
as §1, with “previously. The successful mutations were confirmed via sequencing.” for “previously.”
as §2

[11] = tested on: HIV-1 NL4-3 gp41 S35P pseudovirus; conditions: Table 2; for IC50: S35P, TZM-bl cells, 48 h, luciferase, mean ± SD, triplicate, repeated three times
Protocol: as §4
as §1, with “previously. The successful mutations were confirmed via sequencing.” for “previously.”
as §2

[12] = tested on: HIV-1 NL4-3 gp41 S129N pseudovirus; conditions: Table 2; for IC50: S129N, TZM-bl cells, 48 h, luciferase, mean ± SD, triplicate, repeated three times
Protocol: as §4
as §1, with “previously. The successful mutations were confirmed via sequencing.” for “previously.”
as §2

**Q.** How did the “Fold change in IC50” value ([1]; Table 2) turn out when CCCCCCCCCCCCCCCC(=O)NCCCC[C@H](NC(=O)[C@H](CC(=O)O)NC(=O)[C@H](CC(C)C)NC(=O)[C@H](CCC(=O)O)NC(=O)[C@H](CC(C)C)NC(=O)[C@H](CC(C)C)NC(=O)[C@H](CCC(=O)O)NC(=O)[C@H](CCC(N)=O)NC(=O)[C@H](CCC(=O)O)NC(=O)[C@H](CC(N)=O)NC(=O)[C@H](CCCCN)NC(=O)[C@H](CCC(=O)O)NC(=O)[C@H](CCC(N)=O)NC(=O)[C@H](CCC(N)=O)NC(=O)[C@H](CC(N)=O)NC(=O)[C@H](CCC(N)=O)NC(=O)[C@H](CO)NC(=O)[C@H](CCC(=O)O)NC(=O)[C@H](CCC(=O)O)NC(=O)[C@@H](NC(=O)[C@H](CC(C)C)NC(=O)[C@H](CO)NC(=O)[C@H](Cc1c[nH]cn1)NC(=O)[C@@H](NC(=O)[C@H](CC(C)C)NC(=O)[C@H](CO)NC(=O)[C@@H](NC(=O)[C@H](Cc1ccc(O)cc1)NC(C)=O)[C@@H](C)O)[C@@H](C)CC)[C@@H](C)CC)C(N)=O [LP-40] (Ac-YTSLIHSLIEESQNQQEKNEQELLELDK(Palmitoyl)-NH2) was run?
**A.** 16.33 fold

**Q.** And the “Fold change in IC50” value ([1]; Table 3)?
**A.** 18.85 fold

**Q.** What about the IC50 ([1]; Table 2) of the same compound?
**A.** 515 ± 74.3 nM

**Q.** What about the “Fold change in IC50” value ([2]; Table 2) of the same compound?
**A.** 67 fold and 67.08 fold

**Q.** And the “Fold change in IC50” value ([2]; Table 3)?
**A.** 77.43 fold

**Q.** And the IC50 ([2]; Table 2)?
**A.** 2120 ± 534 nM

**Q.** And the “Fold change in IC50” value ([3]; L33S/V38A/N42T relative to WT NL4-3)?
**A.** 182.67 fold

**Q.** What about the IC50 [3] of the same compound?
**A.** 4990 nM

**Q.** What about the “Fold change in IC50” value ([4]; NDQEEDYN/L33S/V38A/N42T relative to WT NL4-3) of the same compound?
**A.** >228.77 fold

**Q.** What about the IC50 [4] of the same compound?
**A.** > 6250 nM

**Q.** And the “Fold change in IC50” value ([5]; L33S/I37T relative to WT NL4-3)?
**A.** 109.04 fold

**Q.** What about the IC50 [5] of the same compound?
**A.** 2980 nM

**Q.** And the “Fold change in IC50” value ([6]; A21T relative to WT NL4-3)?
**A.** 0.85 fold

**Q.** And the IC50 [6]?
**A.** 26.8 ± 8.36 nM

**Q.** And the “Fold change in IC50” value ([7]; V38T relative to WT NL4-3)?
**A.** 46.03 fold

**Q.** And the IC50 [7]?
**A.** 1450 ± 237 nM

**Q.** And the “Fold change in IC50” value ([8]; A50V relative to WT NL4-3)?
**A.** 1.87 fold

**Q.** What about the IC50 [8] of the same compound?
**A.** 58.8 ± 13.7 nM

**Q.** And the “Fold change in IC50” value ([9]; N42D relative to WT NL4-3)?
**A.** 3.46 fold

**Q.** What about the IC50 [9] of the same compound?
**A.** 109 ± 18.4 nM

**Q.** What about the “Fold change in IC50” value ([10]; N43S relative to WT NL4-3) of the same compound?
**A.** 11.31 fold

**Q.** And the IC50 [10]?
**A.** 357 ± 117 nM

**Q.** What about the “Fold change in IC50” value ([11]; S35P relative to WT NL4-3) of the same compound?
**A.** 0.69 fold

**Q.** What about the IC50 [11] of the same compound?
**A.** 21.6 ± 5.15 nM

**Q.** And the “Fold change in IC50” value ([12]; S129N relative to WT NL4-3)?
**A.** 1.08 fold

**Q.** And the IC50 [12]?
**A.** 34 ± 10 nM

**Q.** How did the IC50 ([1]; Table 2) turn out when Enfuvirtide was run?
**A.** 711 ± 157 nM

**Q.** And the IC50 ([2]; Table 2)?
**A.** 3450 ± 564 nM

**Q.** And the IC50 [3]?
**A.** 4920 nM

**Q.** And the IC50 [4]?
**A.** 4780 nM

**Q.** What about the IC50 [5] of the same compound?
**A.** 5850 nM

**Q.** And the IC50 [6]?
**A.** 58.9 ± 9.24 nM

**Q.** What about the IC50 [7] of the same compound?
**A.** 991 ± 216 nM

**Q.** And the IC50 [8]?
**A.** 162 ± 69.4 nM

**Q.** What about the IC50 [9] of the same compound?
**A.** 164 ± 26.8 nM

**Q.** What about the IC50 [10] of the same compound?
**A.** 540 ± 91.9 nM

**Q.** And the IC50 [11]?
**A.** 138 ± 10.6 nM

**Q.** And the IC50 [12]?
**A.** 70.3 ± 19.8 nM

Reference: paper PMC9223764, “In Vitro Selection and Characterization of HIV-1 Variants with Increased Resistance to LP-40, Enfuvirtide-Based Lipopeptide Inhibitor” (International Journal of Molecular Sciences, 2022)
